This test has as its target T1, human mAChR M4 (Homo sapiens, UniProt P08173).
T1 construct: expressed in transfected cells; host or cells: CHO-K1 (ATCC), co-transfected with chimeric G protein Gqi5
T1 sequence (P08173 1-479): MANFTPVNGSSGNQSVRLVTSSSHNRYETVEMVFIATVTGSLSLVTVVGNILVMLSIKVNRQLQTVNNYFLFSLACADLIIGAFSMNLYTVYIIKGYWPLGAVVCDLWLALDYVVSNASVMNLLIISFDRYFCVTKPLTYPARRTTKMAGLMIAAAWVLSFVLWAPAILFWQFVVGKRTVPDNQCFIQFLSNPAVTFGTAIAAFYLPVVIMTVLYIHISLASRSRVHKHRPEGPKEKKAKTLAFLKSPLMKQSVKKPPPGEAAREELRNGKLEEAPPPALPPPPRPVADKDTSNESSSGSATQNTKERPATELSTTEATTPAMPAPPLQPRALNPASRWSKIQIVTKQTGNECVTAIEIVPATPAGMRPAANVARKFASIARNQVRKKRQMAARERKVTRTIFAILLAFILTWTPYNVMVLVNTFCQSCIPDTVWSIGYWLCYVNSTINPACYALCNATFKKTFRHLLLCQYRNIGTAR
Description: mAChR M4 cell-based functional assay (calcium flux, antagonism of EC80 acetylcholine response, M4/Gqi5/CHO-K1 cells). The conditions noted are these: for remaining activity at 30 µM: CHO-K1, % ACh maximum at 30 μM, read-out: Human M4 Emin; for IC50: decrease of the response elicited by an EC80 concentration of acetylcholine, CHO-K1 cells, Gqi5. As to the method: Human or rat M4 cDNA, along with the chimeric G protein Gqi5, were transfected into Chinese hamster ovary (CHO-K1) cells purchased from the American Type Culture Collection using Lipofectamine2000. M4/Gqi5/CHO cells were grown in Ham's F-12 medium containing 10% heat-inactivated fetal bovine serum (FBS), 20 mM HEPES, 500 μg/mL G418 sulfate, and 200 μg/mL Hygromycin B.
For high throughput measurement of agonist-evoked increases in intracellular calcium, CHO-K1 cells stably expressing muscarinic receptors were plated in growth medium lacking G418 and hygromycin at 15,000 cells/20 μL/well in Greiner 384-well black-walled, tissue culture (TC)-treated, clear-bottom plates (VWR). Cells were incubated overnight at 37° C. and 5% CO2. The next day, cells were washed using an ELX 405 (BioTek) with assay buffer; the final volume was then aspirated to 20 μL. Next, 20 μL of a 2.3 μM stock of Fluo-4/acetoxymethyl ester (Invitrogen, Carlsbad, CA), prepared as a 2.3 mM stock in DMSO and mixed in a 1:1 ratio with 10% (w/v) Pluronic F-127 and diluted in assay buffer, was added to the wells and the cell plates were incubated for 50 min at 37° C. and 5% CO2. Dye was removed by washing with the ELX 405 and the final volume was aspirated to 20 μL. Compound master plates were formatted in a 10-point concentration-response curve (CRC) format (1:3 dilutions) in 100% DMSO with a starting concentration of 10 or 1 mM using a BRAVO liquid handler (Agilent). Test compound CRCs were then transferred to daughter plates (240 nL) using the Echo acoustic plate reformatter (Labcyte, Sunnyvale, CA) and then diluted into assay buffer (40 μL) to a 2× stock using a Thermo Fisher Combi (Thermo Fisher Scientific, Waltham, MA).
Calcium flux was measured using the Functional Drug Screening System (FDSS) 6000 or 7000 (Hamamatsu Corporation, Tokyo, Japan) as an increase in the fluorescent static ratio. Compounds were applied to cells (20 μL, 2×) using the automated system of the FDSS at 2 seconds into the protocol and the data were collected at 1 Hz. At 143 s, 10 μL of an EC20 concentration of the muscarinic receptor agonist acetylcholine was added (5×), followed by the addition of 12 μL of an EC80 concentration of acetylcholine at the 268 s time point (5×). Agonist activity was analyzed as a concentration-dependent increase in calcium mobilization upon compound addition. Positive allosteric modulator activity was analyzed as a concentration-dependent increase in the EC20 acetylcholine response. Antagonist activity was analyzed as a concentration-dependent decrease in the EC80 acetylcholine response; for the purposes of the tables herein, an IC50 (inhibitory concentration 50) was calculated as a concentration-dependent decrease of the response elicited by an EC80 concentration of acetylcholine. Concentration-response curves were generated using a four-parameter logistical equation in XLFit curve fitting software (IDBS, Bridgewater, NJ) for Excel (Microsoft, Redmond, WA) or Prism (GraphPad Software, Inc., San Diego, CA) or the Dotmatics software platform (Dotmatics, Bishop's Stortford, UK). […]
Compounds were synthesized as described above. Activity (IC50 and Emin) was determined in the mAChR M4 cell-based functional assay as described above and the data are shown in Table 2.
In general terms: A change in cytosolic calcium serves as a functional read-out for many receptors and channels.

The term IC50 denotes the concentration that gives 50% inhibition.

With `[2H]C1([2H])CC(C([2H])([2H])N2C[C@H]3C[C@H](Nc4ccc(-c5cnccc5C(F)(F)F)nn4)C[C@@]3(C)C2)CC([2H])([2H])O1` (racemic) [Compound 27, (3aR,5S,6aS)-3a-methyl-2-((tetrahydro-2H-pyran-4-yl-2,2,6,6-d4)methyl-d2)-N-(6-(4-(trifluoromethyl)pyridin-3-yl)pyridazin-3-yl)octahydrocyclopenta[c]pyrrol-5-amine and (3aS,5R,6aR)-3a-methyl-2-((tetrahydro-2H-pyran-4-yl-2,2,6,6-d4)methyl-d2)-N-(6-(4-(trifluoromethyl)pyridin-3-yl)pyridazin-3-yl)octahydrocyclopenta[c]pyrrol-5-amine], the remaining activity at 30 µM stood at 3% and the IC50 worked out at 3.2 nM.
Taken in the same sequence, the figures for `[2H]C([2H])(N1C[C@H]2C[C@H](Nc3ccc(-c4cnccc4C(F)(F)F)nn3)C[C@H]2C1)[C@]12CCC[C@H]1OCC2` (racemic) [Compound 29, (3aR,5s,6aS)-2-(((3aR,6aR)-hexahydro-3aH-cyclopenta[b]furan-3a-yl)methyl-d2)-N-(6-(4-(trifluoromethyl)pyridin-3-yl)pyridazin-3-yl)octahydrocyclopenta[c]pyrrol-5-amine and (3aR,5s,6aS)-2-(((3aS,6aS)-hexahydro-3aH-cyclopenta[b]furan-3a-yl)methyl-d2)-N-(6-(4-(trifluoromethyl)pyridin-3-yl)pyridazin-3-yl)octahydrocyclopenta[c]pyrrol-5-amine] were 4% and 44 nM.
As for `[2H]C([2H])(N1C[C@H]2C[C@H](Nc3ccc(-c4cnccc4C(F)(F)F)nn3)C[C@H]2C1)[C@@]12CCCCC[C@H]1OCC2` (racemic) [Compound 30, (3aR,5s,6aS)-2-(((3aS,8aR)-octabydro-3aH-cyclohepta[b]furan-3a-yl)methyl-d2)-N-(6-(4-(trifluoromethyl)pyridin-3-yl)pyridazin-3-yl)octahydrocyclopenta[c]pyrrol-5-amine and (3aR,5s,6aS)-2-(((3aR,8aS)-octahydro-3aH-cyclohepta[b]furan-3a-yl)methyl-d2)-N-(6-(4-(trifluoromethyl)pyridin-3-yl)pyridazin-3-yl)octahydrocyclopenta[c]pyrrol-5-amine], the remaining activity at 30 µM was found to be 31% and the IC50 came out at 4000 nM.
For `[2H]C([2H])(C1CCOCC1)N1C[C@@H]2C[C@@H](Nc3ccc(-c4cccnc4C(F)(F)F)nn3)C[C@]2(C)C1` (racemic) [Compound 56, (3aR,5S,6aS)-3a-methyl-2-((tetrahydro-2H-pyran-4-yl)methyl-d2)-N-(6-(2-(trifluoromethyl)pyridin-3-yl)pyridazin-3-yl)octahydrocyclopenta[c]pyrrol-5-amine and (3aS,5R,6aR)-3a-methyl-2-((tetrahydro-2H-pyran-4-yl)methyl-d2)-N-(6-(2-(trifluoromethyl)pyridin-3-yl)pyridazin-3-yl)octahydrocyclopenta[c]pyrrol-5-amine], the remaining activity at 30 µM was determined as 2% and the IC50 worked out at 1.9 nM.
On to `[2H]C1([2H])CC(C([2H])([2H])N2C[C@H]3C[C@H](Nc4ccc(-c5cccnc5C(F)(F)F)nn4)C[C@@]3(C)C2)CC([2H])([2H])O1` (racemic) [Compound 57, (3aR,5S,6aS)-3a-methyl-2-((tetrahydro-2H-pyran-4-yl-2,2,6,6-d4)methyl-d2)-N-(6-(2-(trifluoromethyl)pyridin-3-yl)pyridazin-3-yl)octahydrocyclopenta[c]pyrrol-5-amine and (3aS,5R,6aR)-3a-methyl-2-((tetrahydro-2H-pyran-4-yl-2,2,6,6-d4)methyl-d2)-N-(6-(2-(trifluoromethyl)pyridin-3-yl)pyridazin-3-yl)octahydrocyclopenta[c]pyrrol-5-amine], for which the remaining activity at 30 µM was determined as 3% and the concentration for half-maximal inhibition (IC50) was determined as 1.5 nM.

Values taken from US20240109873A1, “ANTAGONISTS OF THE MUSCARINIC ACETYLCHOLINE RECEPTOR M4” (Vanderbilt University, priority 2020, published 2024).
